The text below walks through data of patent publication US12336991B2, “Factor XIIA inhibitors” (UNIVERSITY OF LEEDS, priority 2018, dated 2025).

Common to all, as to type: biochemical
Assay [1] concerns the target T1, thrombin (Homo sapiens, UniProt P00734).
T1 construct: FXa (5 nM) and thrombin (5 nM)
Kind of assay: Determination of selectivity: thrombin inhibition, chromogenic substrate GPR assay. The settings on record: fold selectivity for FXIIa over thrombin. Summed up: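 Thrombin (5 nM) preincubated with compound 10 min at 37 °C in 50 mM Tris, 137 mM NaCl, pH 7.4, 5% DMSO, then GPR substrate ([…]) added. Absorbance at 405 nm read kinetically for 3 h; IC50 from initial rates, converted to Ki via Ki=IC50/(1+[S]/Km).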

Assay [2] has as its target T2, FXIIa (Homo sapiens, UniProt P00748).
T2 sequence (P00748 373-615 limits assumed): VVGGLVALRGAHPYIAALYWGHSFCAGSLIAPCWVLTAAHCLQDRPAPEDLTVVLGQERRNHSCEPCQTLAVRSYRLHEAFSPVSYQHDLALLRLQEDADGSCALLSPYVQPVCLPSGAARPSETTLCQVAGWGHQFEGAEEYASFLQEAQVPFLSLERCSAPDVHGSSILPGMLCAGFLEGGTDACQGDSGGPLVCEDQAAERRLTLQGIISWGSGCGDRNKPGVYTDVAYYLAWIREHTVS
T2 sequence (P00748 20-372 partner limits assumed): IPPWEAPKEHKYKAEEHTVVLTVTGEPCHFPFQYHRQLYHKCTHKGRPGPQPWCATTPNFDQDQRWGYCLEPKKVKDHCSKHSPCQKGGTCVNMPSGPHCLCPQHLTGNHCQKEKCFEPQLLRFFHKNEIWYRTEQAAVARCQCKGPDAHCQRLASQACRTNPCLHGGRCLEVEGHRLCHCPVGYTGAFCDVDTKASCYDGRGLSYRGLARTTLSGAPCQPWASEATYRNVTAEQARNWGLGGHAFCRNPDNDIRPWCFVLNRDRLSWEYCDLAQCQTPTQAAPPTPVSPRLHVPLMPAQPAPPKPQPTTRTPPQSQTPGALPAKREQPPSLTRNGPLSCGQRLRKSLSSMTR
Kind of assay: Determination of Factor XIIa inhibition, chromogenic substrate S-2302 assay. The settings on record: human FXIIa alpha. The essentials: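 FXIIa (10 nM) preincubated with compound 10 min at 37° C. in 50 mM Tris, 137 mM NaCl pH 7.4, 5% DMSO, top concentration 500 μM, then S-2302 added ([…]). Absorbance at 405 nm read kinetically for 3 h; IC50 from initial rates, converted to Ki by Cheng-Prusoff.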

Assay [3] deals with FXa (Homo sapiens, UniProt P00742). The assay is described as follows: Determination of selectivity: FXa inhibition, chromogenic substrate S2765 assay. The settings on record: fold selectivity for FXIIa over FXa. Summed up: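 Human FXa (5 nM) preincubated with compound (top 500 μM, 5% DMSO) 10 min at 37 °C in 50 mM Tris, 137 mM NaCl pH 7.4, then S2765 ([…]) added; A405 kinetics over 3 h at 37 °C. IC50 from initial rates, converted to Ki via Cheng-Prusoff.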
Chain of FXa (P00742 235-488 limits assumed): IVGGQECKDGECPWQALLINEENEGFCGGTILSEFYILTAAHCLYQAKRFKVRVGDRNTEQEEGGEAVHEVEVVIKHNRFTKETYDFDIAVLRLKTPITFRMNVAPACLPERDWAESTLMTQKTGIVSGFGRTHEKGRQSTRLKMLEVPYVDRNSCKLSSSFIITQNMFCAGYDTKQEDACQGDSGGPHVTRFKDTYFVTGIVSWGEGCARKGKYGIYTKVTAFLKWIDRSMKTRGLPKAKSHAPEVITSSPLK
Chain of FXa (P00742 41-179 partner limits assumed): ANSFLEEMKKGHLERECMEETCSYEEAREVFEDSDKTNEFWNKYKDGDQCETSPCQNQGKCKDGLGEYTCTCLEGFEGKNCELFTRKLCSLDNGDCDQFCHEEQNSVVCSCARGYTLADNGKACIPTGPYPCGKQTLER

As usually defined, the Ki is a measure of affinity in units of concentration, obtained from inhibition or displacement. Read a high Ki as lower affinity.

As for `O=C(NCc1cc2cnccc2[nH]1)[C@@H]1C[C@@H](Cc2ccc(C(F)(F)F)cc2)CN1C(=O)C1NCCc2cc(Cl)ccc21` (stereo partly drawn) [Example M00970], the “Thrombin (human)/FXIIa alpha (human)” value in assay [1] is reported as “++ (fold selectivity value of 10 to 100)”. For the same compound, the Ki in assay [2] lay in the range of 200 to 2000 nM. In addition, the “FXa (human)/FXIIa alpha (human)” value in assay [3] is given as “∘∘∘”.

Turning to `Cn1nnc2cc(CNC(=O)[C@@H]3C[C@@H](Cc4ccc(C(F)(F)F)cc4)CN3C(=O)[C@H](N)CCC(=O)N3CCCC3)ccc21` [Example M05336], in assay [1], the “Thrombin (human)/FXIIa alpha (human)” value was “+++ (fold selectivity values greater than 100)”. Moreover, the inhibition constant (Ki) in assay [2] is < 200 nM. The “FXa (human)/FXIIa alpha (human)” value in assay [3] is reported as “∘∘∘”.

As to `COc1ccc(C[C@@H]2C[C@@H](C(=O)NCc3ccc4c(c3)c(C)nn4C)N(C(=O)[C@H](N)CCC(=O)N3CCCC3)C2)cc1` [Example M05447], in assay [1], the “Thrombin (human)/FXIIa alpha (human)” value is reported as “+++ (fold selectivity values greater than 100)”. For the same compound, the inhibitory constant (Ki) in assay [2] fell in the range of 200 to 2000 nM. Further, in assay [3], the “FXa (human)/FXIIa alpha (human)” value is “∘∘∘”.

As for `NCc1ccc(CNC(=O)[C@@H]2C[C@@H](Cc3ccncc3)CN2C(=O)[C@H](N)CCc2ccccc2)cc1` [Example M05156], the “Thrombin (human)/FXIIa alpha (human)” value in assay [1] was “+ (fold selectivity values less than 10)”. The compound further had a Ki in assay [2] of 200 to 2000 nM. In assay [3], the “FXa (human)/FXIIa alpha (human)” value was “∘∘∘”.

Turning to `Cn1nnc2cc(CNC(=O)[C@@H]3C[C@@H](Cc4ccccc4C(F)(F)F)CN3C(=O)[C@H]3C[C@@H](c4ccccc4)CN3)ccc21` [Example M05357], in assay [1], the “Thrombin (human)/FXIIa alpha (human)” value was “++ (fold selectivity value of 10 to 100)”. Further, the Ki in assay [2] is > 2000 nM. In addition, the “FXa (human)/FXIIa alpha (human)” value in assay [3] is “∘∘”.

For `Cc1ccccc1C[C@@H]1C[C@@H](C(=O)NCc2ccc3c(c2)nnn3C)N(C(=O)[C@H]2C[C@@H](c3ccccc3)CN2)C1` [Example M05360], in assay [1], the “Thrombin (human)/FXIIa alpha (human)” value is “++ (fold selectivity value of 10 to 100)”. This compound also came in with an inhibitory constant (Ki) in assay [2] of 200 to 2000 nM. Moreover, the “FXa (human)/FXIIa alpha (human)” value in assay [3] is reported as “∘∘”.

For `Cn1nnc2cc(CNC(=O)[C@@H]3C[C@H](Cc4ccccn4)CN3C(=O)[C@H](N)CCC(=O)N3CCCC3)ccc21` [Example M05296], in assay [1], the “Thrombin (human)/FXIIa alpha (human)” value was “+++ (fold selectivity values greater than 100)”. Besides, the Ki in assay [2] was in the range of 200 to 2000 nM. In assay [3], the “FXa (human)/FXIIa alpha (human)” value was “∘∘∘”.

For `Cn1nnc2cc(CNC(=O)[C@@H]3CC(Cc4ccc(C#N)cc4)CN3C(=O)[C@H](N)CCC(=O)N3CCCC3)ccc21` (stereo partly drawn) [Example M05312], in assay [1], the “Thrombin (human)/FXIIa alpha (human)” value is given as “+++ (fold selectivity values greater than 100)”. The compound also displayed a Ki in assay [2] of 200 to 2000 nM. Besides, the “FXa (human)/FXIIa alpha (human)” value in assay [3] is on record as “∘∘∘”.

As for `COc1ccc(C[C@@H]2C[C@@H](C(=O)NCc3ccc4c(c3)nnn4C)N(C(=O)[C@H](N)CCc3ccccc3)C2)cc1` [Example M05302], the “Thrombin (human)/FXIIa alpha (human)” value in assay [1] is recorded as “+++ (fold selectivity values greater than 100)”. Also, in assay [2], the Ki lay within 200 to 2000 nM. In addition, in assay [3], the “FXa (human)/FXIIa alpha (human)” value was “∘∘∘”.

Regarding `COc1cccc(CC2C[C@@H](C(=O)NCc3ccc4c(c3)nnn4C)N(C(=O)[C@H](N)CCC(=O)N3CCCC3)C2)c1` (stereo partly drawn) [Example M05300], the “Thrombin (human)/FXIIa alpha (human)” value in assay [1] is given as “+++ (fold selectivity values greater than 100)”. For the same compound, in assay [2], the Ki fell in the range of 200 to 2000 nM. Further, the “FXa (human)/FXIIa alpha (human)” value in assay [3] is on record as “∘∘∘”.

Take `Cc1ccc(C[C@@H]2C[C@@H](C(=O)NCc3cc4cnccc4[nH]3)N(C(=O)[C@H](N)CCC(=O)N3CCCC3)C2)cc1` [Example M00968]: the “Thrombin (human)/FXIIa alpha (human)” value in assay [1] is listed as “+++ (fold selectivity values greater than 100)”. The Ki in assay [2] was < 200 nM. The “FXa (human)/FXIIa alpha (human)” value in assay [3] was “∘∘∘”.

As for `COc1ccc(C[C@@H]2C[C@@H](C(=O)NCc3ccc4c(c3)nnn4C)N(C(=O)[C@H]3C[C@@H](c4ccccc4)CN3)C2)cc1Cl` [Example M05339], the “Thrombin (human)/FXIIa alpha (human)” value in assay [1] is on record as “+++ (fold selectivity values greater than 100)”. The Ki in assay [2] lay in the range of 200 to 2000 nM. Besides, the “FXa (human)/FXIIa alpha (human)” value in assay [3] is “∘∘∘”.

Regarding `Cn1nnc2cc(CNC(=O)[C@@H]3C[C@H](NCc4ccccc4)CN3C(=O)[C@H](N)CCc3ccccc3)ccc21` [Example M05158], in assay [1], the “Thrombin (human)/FXIIa alpha (human)” value is “++ (fold selectivity value of 10 to 100)”. Further, the Ki in assay [2] was > 2000 nM. Moreover, the “FXa (human)/FXIIa alpha (human)” value in assay [3] was “∘∘”.

`Cn1nnc2cc(CNC(=O)[C@@H]3C[C@@H](Cc4ccc(F)cc4F)CN3C(=O)[C@H](N)CCC(=O)N3CCCC3)ccc21` [Example M05235]: the “Thrombin (human)/FXIIa alpha (human)” value in assay [1] is “+++ (fold selectivity values greater than 100)”. Further, the Ki in assay [2] was < 200 nM. Further, the “FXa (human)/FXIIa alpha (human)” value in assay [3] is given as “∘∘∘”.

In the case of `Nc1nccc2cc(CNC(=O)[C@@H]3CCCN3C(=O)[C@H](N)CCc3ccccc3)ccc12` [Example M05237], the “Thrombin (human)/FXIIa alpha (human)” value in assay [1] was “+ (fold selectivity values less than 10)”. The compound further yielded a Ki in assay [2] of 200 to 2000 nM. In addition, in assay [3], the “FXa (human)/FXIIa alpha (human)” value is listed as “∘∘”.

Consider `COc1ccc(C[C@@H]2C[C@@H](C(=O)NCc3ccc4c(c3)nnn4C)N(C(=O)[C@H](N)CCC(=O)N3C4CCC3COC4)C2)cc1` [Example M05411], for which, in assay [1], the “Thrombin (human)/FXIIa alpha (human)” value is given as “+++ (fold selectivity values greater than 100)”. In assay [2], this compound showed a Ki of 200 to 2000 nM. For the same compound, in assay [3], the “FXa (human)/FXIIa alpha (human)” value is given as “∘∘∘”.

As to `Cn1nnc2cc(CNC(=O)[C@@H]3C[C@H](NC4CCCCC4)CN3C(=O)[C@H](N)CCc3ccccc3)ccc21` [Example M05203], the “Thrombin (human)/FXIIa alpha (human)” value in assay [1] is recorded as “++ (fold selectivity value of 10 to 100)”. Also, in assay [2], the Ki was > 2000 nM. Further, the “FXa (human)/FXIIa alpha (human)” value in assay [3] was “∘∘”.

In the case of `Cn1nnc2cc(CNC(=O)[C@@H]3C[C@H](NCc4ccc(Cl)cc4)CN3C(=O)[C@H](N)CCc3ccccc3)ccc21` [Example M05160], in assay [1], the “Thrombin (human)/FXIIa alpha (human)” value is recorded as “++ (fold selectivity value of 10 to 100)”. In assay [2], the Ki is > 2000 nM. For the same compound, in assay [3], the “FXa (human)/FXIIa alpha (human)” value is on record as “∘∘”.

In the case of `COc1ccc(C[C@@H]2C[C@@H](C(=O)NCc3cc4cnccc4[nH]3)N(C(=O)C3C[C@@H](C(=O)N4CCCC4)CCN3)C2)cc1` (stereo partly drawn) [Example M00966], the “Thrombin (human)/FXIIa alpha (human)” value in assay [1] is “+++ (fold selectivity values greater than 100)”. Further, in assay [2], the Ki is < 200 nM. For the same compound, the “FXa (human)/FXIIa alpha (human)” value in assay [3] is listed as “∘∘∘”.

For `Nc1nccc2cc(CNC(=O)[C@@H]3C[C@@H](c4ccccc4)CN3C(=O)[C@H](N)CCC(=O)N3CCCC3)ccc12` [Example M05282], in assay [1], the “Thrombin (human)/FXIIa alpha (human)” value is “++ (fold selectivity value of 10 to 100)”. The inhibitory constant (Ki) in assay [2] was in the range of 200 to 2000 nM. In assay [3], the “FXa (human)/FXIIa alpha (human)” value is reported as “∘”.

Consider `COc1ccc(C[C@@H]2C[C@@H](C(=O)NCc3ccc4c(c3)nnn4C)N(C(=O)C3NCCc4cc(OC)ccc43)C2)cc1` (stereo partly drawn) [Example M05441], for which the “Thrombin (human)/FXIIa alpha (human)” value in assay [1] was “+++ (fold selectivity values greater than 100)”. The inhibitory constant (Ki) in assay [2] is < 200 nM. In assay [3], the “FXa (human)/FXIIa alpha (human)” value was “∘∘∘”.

As for `COc1cc(CNC(=O)[C@@H]2C[C@H](C)CN2C(=O)[C@H](N)CCc2ccccc2)ccc1CN` [Example M05073], the “Thrombin (human)/FXIIa alpha (human)” value in assay [1] is listed as “+ (fold selectivity values less than 10)”. Besides, the Ki in assay [2] is 200 to 2000 nM. The “FXa (human)/FXIIa alpha (human)” value in assay [3] was “∘∘”.

Regarding `NCc1ccc(CNC(=O)[C@@H]2CCCN2C(=O)[C@H](N)CCC(=O)N2CC=CC2)cc1` [Example M00922], the “Thrombin (human)/FXIIa alpha (human)” value in assay [1] was “+ (fold selectivity values less than 10)”. For the same compound, in assay [2], the Ki was > 2000 nM. Further, the “FXa (human)/FXIIa alpha (human)” value in assay [3] is “∘∘”.
